Key:
[1] = tested on: cerebellar granule cells exposed to MPP+ neurotoxin; details: 100 μM Vitamin E; about 50% without; cited from earlier work
[2] = pKa and protonated cationic fraction of lubeluzole; format: physicochemical
Excerpt: Because lubeluzole has a PKa of 7.6 it is present in its protonated cationic form at pHs less than 7.6. For example, at pHs of 7.4 and 6.0, about 61% and 97% of lubeluzole is respectively present in its protonated cationic form. Therefore, the skilled artisan can expect a significant amount of lubeluzole to be present in its cationic form at relatively mild pHs and particularly at the pHs of physiologic CSF (˜7.5). Moreover, support for the transport of benzothiazole derivatives is found in the literature. Levamisole is believed to be a benzothiazole derivativethat has been transdermally transported iontophoretically in order to treat herpes simplex virus and recurrent aphthous stomatitis.

[3] = cited from earlier work

Compound | in vitro viability of cerebellar granule cells exposed to MPP+ [1] | lubeluzole present in its protonated cationic form ([2]; pH 6.0) [%] | lubeluzole present in its protonated cationic form ([2]; pH 7.4) | PKa [3]
Vitamin E | about 85% |  |  | 
CN(c1nc2ccccc2s1)C1CCN(C[C@H](O)COc2ccc(F)c(F)c2)CC1 [lubeluzole] |  | ~97 | about 61% | 7.6

From US20070031341A1, “Methods of delivering therapeutics to the brain” (priority 2005, published 2007)
